According to BindingDB's records for doi:10.1021/jm00095a025 (University of Uppsala, 1992):

The compounds below were run against Muscarinic acetylcholine receptor (Cavia porcellus, UniProt Q8VH26) (assay: Muscarinic acetylcholine receptor M3 agonistic/antagonistic activity in guinea pig ileum).
Chain of Muscarinic acetylcholine receptor (Q8VH26 whole entry): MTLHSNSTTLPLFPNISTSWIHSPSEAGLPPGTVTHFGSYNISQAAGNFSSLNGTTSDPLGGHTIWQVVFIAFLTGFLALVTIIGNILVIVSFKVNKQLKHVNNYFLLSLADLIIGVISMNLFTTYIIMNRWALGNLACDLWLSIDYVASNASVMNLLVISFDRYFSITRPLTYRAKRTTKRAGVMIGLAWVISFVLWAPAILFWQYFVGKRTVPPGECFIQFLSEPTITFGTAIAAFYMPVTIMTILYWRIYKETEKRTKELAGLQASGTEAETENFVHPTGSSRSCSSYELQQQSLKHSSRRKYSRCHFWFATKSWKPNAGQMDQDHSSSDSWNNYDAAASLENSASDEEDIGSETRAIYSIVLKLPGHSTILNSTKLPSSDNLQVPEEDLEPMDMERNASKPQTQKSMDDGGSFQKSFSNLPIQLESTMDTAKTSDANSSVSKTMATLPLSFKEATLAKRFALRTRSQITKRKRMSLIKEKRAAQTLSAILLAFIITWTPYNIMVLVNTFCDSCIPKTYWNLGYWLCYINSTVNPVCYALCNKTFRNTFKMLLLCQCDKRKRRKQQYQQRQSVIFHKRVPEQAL
Work on `CC(C#CCN1CCCC1)N1CCCC1=O` (stereo not drawn) yielded an EC50 of under 1 nM.
`CC(C#CCN1CCCC1)N1CCNC1=O` (stereo not drawn) showed an EC50 of under 1 nM.
Compound `CC(C#CCN1CCCC1)N(C)C(N)=O` (stereo not drawn) has an EC50 of under 1 nM.
